The text below walks through data of publication PMC7781899, “Synthesis of some quinazolinones inspired from the natural alkaloid L-norephedrine as EGFR inhibitors and radiosensitizers” (Journal of Enzyme Inhibition and Medicinal Chemistry, 2020).

Series [1] has as its system MDA-MB-231. Put plainly: MTT cytotoxicity assay, MDA-MB-231. In kind it is cell-based, human. Particulars: for IC50: Homo sapiens, MDA-MB-231, MTT assay, mean of three experiments ± SE, read-out: IC50 MDA-MB-231; for Selectivity index (SI) MDA-MB-231: relative to MCF-10A normal cells. The protocol:
(§1) The 96-well plate was incubated for 24 h before the MTT assay. […] Cells were cultured using DMEM supplemented with 10% foetal bovine serum, 10 µg/mL insulin and 1% penicillin–streptomycin. Reconstituted MTT (10%) was added and incubated for 2 h. Formazan crystals were dissolved by the MTT solubilizing solution after incubation. Absorbance was measured at a wavelength of 570 nm[28].
For orientation: Formazan colour is commonly taken as a measure of viable cells.

The subject of series [2] is MCF-7. Put plainly: MTT cytotoxicity assay, MCF-7. In kind it is cell-based, human. Particulars: for IC50: Homo sapiens, MCF7, MTT assay, mean of three experiments ± SE, read-out: IC50 MCF-7; for Selectivity index (SI) MCF-7: relative to MCF-10A normal cells. The protocol:
as §1

For series [3], the system named is HCT-116. Put plainly: MTT cytotoxicity assay, HCT-116. Conditions: for IC50: Homo sapiens, HCT-116, MTT assay, mean of three experiments ± SE, read-out: IC50 HCT-116; for Selectivity index (SI) HCT-116: relative to MCF-10A normal cells. It counts as cell-based, human. The protocol: as §1
Series [4] concerns HepG-2. Put plainly: MTT cytotoxicity assay, HepG-2. It counts as cell-based, human. Particulars: for IC50: Homo sapiens, HepG2, MTT assay, mean of three experiments ± SE, read-out: IC50 HepG-2. The protocol:
as §1

For the next series, the target named is T1, EGFR (Homo sapiens, UniProt P00533).
T1 construct: purchased Invitrogen
T1 sequence (P00533 25-1210): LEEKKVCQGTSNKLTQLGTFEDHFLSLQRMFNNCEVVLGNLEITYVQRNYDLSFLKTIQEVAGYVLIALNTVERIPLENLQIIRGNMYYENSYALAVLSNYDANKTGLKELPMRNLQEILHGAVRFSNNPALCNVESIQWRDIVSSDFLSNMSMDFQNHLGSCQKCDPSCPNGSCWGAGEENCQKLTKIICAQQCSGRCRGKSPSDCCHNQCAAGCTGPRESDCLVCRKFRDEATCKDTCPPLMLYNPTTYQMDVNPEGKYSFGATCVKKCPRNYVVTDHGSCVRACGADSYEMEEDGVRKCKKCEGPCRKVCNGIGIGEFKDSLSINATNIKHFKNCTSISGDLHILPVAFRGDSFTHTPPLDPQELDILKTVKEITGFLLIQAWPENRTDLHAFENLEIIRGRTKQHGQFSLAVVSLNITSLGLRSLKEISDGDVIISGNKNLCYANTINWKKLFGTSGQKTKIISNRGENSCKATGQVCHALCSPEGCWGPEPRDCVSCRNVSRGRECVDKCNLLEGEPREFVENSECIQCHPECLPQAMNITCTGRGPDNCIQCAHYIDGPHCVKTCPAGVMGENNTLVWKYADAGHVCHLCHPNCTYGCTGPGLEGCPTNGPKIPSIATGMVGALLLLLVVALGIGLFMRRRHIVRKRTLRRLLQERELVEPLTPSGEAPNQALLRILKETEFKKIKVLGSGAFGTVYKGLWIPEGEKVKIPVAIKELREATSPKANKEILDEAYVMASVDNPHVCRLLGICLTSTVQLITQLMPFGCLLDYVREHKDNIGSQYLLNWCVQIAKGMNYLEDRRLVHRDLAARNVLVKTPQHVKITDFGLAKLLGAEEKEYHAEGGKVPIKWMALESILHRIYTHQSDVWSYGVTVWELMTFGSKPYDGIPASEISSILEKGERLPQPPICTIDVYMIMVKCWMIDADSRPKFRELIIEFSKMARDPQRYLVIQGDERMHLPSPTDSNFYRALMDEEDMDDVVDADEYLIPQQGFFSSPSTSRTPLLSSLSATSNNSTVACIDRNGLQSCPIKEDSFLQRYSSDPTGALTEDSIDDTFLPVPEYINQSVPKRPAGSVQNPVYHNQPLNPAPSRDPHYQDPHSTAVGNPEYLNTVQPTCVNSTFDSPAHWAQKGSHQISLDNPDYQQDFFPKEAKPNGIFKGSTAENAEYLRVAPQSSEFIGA
Put plainly: EGFR kinase assay. Conditions: EGFR-TK inhibitory assay; means ± SE, three repeats. In kind it is biochemical. The method, then: An ATP solution and a kinase/peptide mixture were developed just before use. […] Then, […] of the prepared solution was added to each well. The plate was incubated for 1 h and determined by an ELISA Reader (PerkinElmer, USA). Curve fitting using Graph Pad Prism 5 was constructed. Each experiment was repeated three times. IC50 was represented as means ± SE.

In series [5] the test system is MCF-10A normal breast cell line. Put plainly: MTT cytotoxicity assay, MCF-10A normal cells. In kind it is cell-based. Conditions: Homo sapiens. The protocol:
as §1

The subject of series [6] is MDA-MB-231. Put plainly: Radiosensitizing evaluation, MDA-MB-231. It counts as cell-based. Particulars: Homo sapiens, MDA-MB-231, light or radiation study, 48 h; single dose of 8 Gy gamma radiation; measured two days after irradiation. The protocol:
(§2) Irradiation was performed at the National Centre for Radiation Research and Technology (NCRRT), Egyptian Atomic Energy Authority, using Gamma cell-40 (^137Cs) source. The promising compounds 5 and 6 were selected to be re-evaluated for in vitro cytotoxic activity after the cells containing the compounds were gamma-irradiated at a dose level of 8 Gy with a dose rate of 0.758 rad/s for 17.59 min. Cytotoxicity was measured two days after irradiation. The IC50 of the tested compounds is calculated using GraphPad Prism 5.

Series [7] concerns MCF-7. Put plainly: Radiosensitizing evaluation, MCF-7. It counts as cell-based. Conditions: Homo sapiens, MCF7, light or radiation study, 48 h; single dose of 8 Gy gamma radiation; measured two days after irradiation. The method, then:
as §2

The subject of series [8] is HCT-116. Put plainly: Radiosensitizing evaluation, HCT-116. It counts as cell-based. Particulars: Homo sapiens, HCT-116, light or radiation study, 48 h; single dose of 8 Gy gamma radiation; measured two days after irradiation. The protocol: as §2
The test system of series [9] is HepG-2. Description: Radiosensitizing evaluation, HepG-2. It counts as cell-based. Conditions: Homo sapiens, HepG2, light or radiation study, 48 h; single dose of 8 Gy gamma radiation; measured two days after irradiation. The method, then:
as §2

Series [10] concerns MDA-MB-231 cells. Description: Cell cycle analysis by flow cytometry (PI). It counts as cell-based, human. Particulars: 0.76 μM, 24 h. The protocol:
The MDA-MB-231 cells (10^5/well) were incubated with compound 5 at its IC50. After 24 h, the cells were washed twice with PBS, then collected and fixed with ice-cold ethanol 70% (v/v). The cells were re-suspended with 0.1 mg/mL RNase, stained with […] PI and examined using flow cytometry (FACScalibur-Becton Dickinson).
(In general: A flow cytometer gives signals particle by particle.)

Series [11] concerns MDA-MB-231 cells. Description: Apoptotic assay, Annexin V-FITC/PI. It counts as cell-based, human. Conditions: 0.76 μM, 24 h. The method, then:
Cells were prepared as previously mentioned. Treatment of cells (10^5) with Annexin V-FITC and propidium iodide (PI) was by apoptosis detection kit [BD Biosciences, San Jose, CA]. The binding of Annexin V-FITC and PI was examined using flow cytometry FACScalibur (BD Biosciences, San Jose, CA). CellQuest software was used for performing quadrant analysis of co-ordinate dot plots.

Series [12] deals with MDA-MB-231, MCF-7, HepG-2 and HCT-116 human cancer cell lines. Description: MTT assay, panel of cancer cell lines. Conditions: range over MDA-MB-231, MCF-7, HepG-2, HCT-116, read-out: IC50 against all the cell lines. It counts as cell-based. The protocol: as §1
Series [13] concerns MDA-MB-231, MCF-7, HCT-116, HepG-2. Put plainly: Radiosensitizing evaluation, all tested cell lines. In kind it is cell-based. Conditions: Homo sapiens, light or radiation study; single dose of 8 Gy gamma radiation; read-out: IC50 on all the tested cell lines after irradiation. The protocol: as §2

A word on the IC50: it is the concentration at which inhibition is half-maximal. As to `CC(C(O)c1ccccc1)n1c(=S)[nH]c2ccccc2c1=O` (stereo not shown) [Compound 4, 3-(1-hydroxy-1-phenylpropan-2-yl)-2-thioxo-2,3-dihydroquinazolin-4(1H)-one], the 50% inhibitory concentration (IC50) in the series with MDA-MB-231 [1] was 35.24 ± 0.24 µM; with MCF-7 [2], 25.55 ± 0.02 µM; with HCT-116 [3], 23.49 ± 0.05 µM; with HepG-2 [4] it was 22.7 ± 0.61 µM; against EGFR, 1.39 ± 0.14 µM.

One may read the melting point as the temperature, or range, at which the solid turns liquid. Compound `CSc1nc2ccccc2c(=O)n1C(C)C(O)c1ccccc1` (stereo not shown) [Compound 5, 3-(1-Hydroxy-1-phenylpropan-2-yl)-2-(methylthio)quinazolin-4(3H)-one] yielded a melting point of 121.5 °C. Also, in the series with MDA-MB-231 [1], the IC50 is 1.53 ± 0.01 µM and the “Selectivity index (SI) MDA-MB-231” value turned out to be 40.42. In addition, in the series with MCF-7 [2], the IC50 was 5.43 ± 0.14 µM and the “Selectivity index (SI) MCF-7” value is 11.39. Also, in the series with HCT-116 [3], the concentration for half-maximal inhibition (IC50) is 5.76 ± 0.11 µM and the “Selectivity index (SI) HCT-116” value turned out to be 10.74. In the series on HepG-2 [4], the IC50 worked out at 4.14 ± 0.03 µM. Moreover, the “Selectivity index (SI) HepG-2” value in the series on HepG-2 [4] (relative to MCF-10A normal cells) was determined as 14.93. On EGFR, this compound registered a 50% inhibitory concentration (IC50) of 0.76 ± 0.1 µM. The compound further yielded an IC50 in series [5] of 61.9 ± 2.14 µM. Besides, the IC50 in the series on MDA-MB-231 [6] came out at 0.78 ± 0.15 µM. The IC50 in the series with MCF-7 [7] came out at 2.35 ± 0.18 µM. Also, in the series on HCT-116 [8], the half-maximal inhibitory concentration (IC50) came out at 2.28 ± 0.41 µM. The IC50 in the series with HepG-2 [9] stood at 2.34 ± 0.23 µM. Moreover, in the series on MDA-MB-231 cells [10], the “% G2-M” value is 40.39%, the “% Pre-G1” value worked out at 19.23%, the “% S” value was determined as 34.84% and the “%G0-G1” value came to 24.77%. Further, the “rise of percentage of cells at pri-G1 phase over control” value with MDA-MB-231 cells [10] came out at 10 folds. Also, in the series on MDA-MB-231 cells [11], the “Apoptotic assay % Early” value is listed as 7.36%, the “Apoptotic assay % Late” value amounted to 11.74%, the “Apoptotic assay % Necrosis” value came to 3.84% and the “Apoptotic assay % Total” value is reported as 22.94%. For the same compound, the “apoptosis over the control” value in the series with MDA-MB-231 cells [11] was “more than 12 folds”. Also, the IC50 in [12] lay in the range of 1.53 to 5.76 µM. Further, in series [13], the IC50 was below 5 µM.

Regarding `Nn1c(=S)[nH]c2ccccc2c1=O` [Compound 6, 3-Amino-2-thioxo-2,3-dihydroquinazolin-4(1H)-one], the melting point stood at 261.2 °C. In the series with MDA-MB-231 [1], the IC50 was determined as 1.6 ± 0.01 µM and the “Selectivity index (SI) MDA-MB-231” value turned out to be 30.75. Besides, in the series with MCF-7 [2], the concentration for half-maximal inhibition (IC50) was 7.23 ± 0.07 µM and the “Selectivity index (SI) MCF-7” value stood at 6.81. In the series with HCT-116 [3], the half-inhibitory concentration (IC50) stood at 10.6 ± 0.19 µM and the “Selectivity index (SI) HCT-116” value was determined as 4.64. In addition, the IC50 in the series with HepG-2 [4] stood at 17.6 ± 0.15 µM. The compound further displayed a concentration for half-maximal inhibition (IC50) at EGFR of 2.13 ± 0.21 µM. This compound also had an IC50 in [5] of 49.2 ± 1.52 µM. Further, the half-inhibitory concentration (IC50) with MDA-MB-231 [6] turned out to be 1.04 ± 0.04 µM. For the same compound, in the series with MCF-7 [7], the concentration for half-maximal inhibition (IC50) turned out to be 4.26 ± 0.01 µM. Further, the IC50 with HCT-116 [8] was 6.98 ± 0.25 µM. In the series on HepG-2 [9], the IC50 stood at 14.26 ± 0.11 µM.

`CSc1nc2ccccc2c(=O)n1N` [Compound 7, 3-Amino-2-(methylthio)quinazolin-4(3H)-one] displayed a melting point of 178.9 °C. In addition, the half-inhibitory concentration (IC50) with MDA-MB-231 [1] amounted to 23.48 ± 0.06 µM. For the same compound, the IC50 with MCF-7 [2] stood at 68.1 ± 1.21 µM. The IC50 in the series on HCT-116 [3] was 59.2 ± 0.78 µM. Further, the IC50 in the series with HepG-2 [4] came out at 48.3 ± 0.93 µM. On EGFR, the IC50 turned out to be 3.44 ± 0.15 µM.

As to `CC1C(c2ccccc2)Sc2nc3ccccc3c(=O)n21` (stereo not shown) [Compound 8, 3-Methyl-2-phenyl-2H-thiazolo[2,3-b]quinazolin-5(3H)-one], the half-maximal inhibitory concentration (IC50) in the series on MDA-MB-231 [1] was 38.19 ± 0.38 µM; in the series on MCF-7 [2] it was 70.1 ± 0.87 µM; in the series with HCT-116 [3], 49.22 ± 0.49 µM; with HepG-2 [4] it was 47.32 ± 0.47 µM; against EGFR, 3.74 ± 0.17 µM.

As for `CC1Nn2c(nc3ccccc3c2=O)OC1c1ccccc1` (stereo not shown) [Compound 9, 3-Methyl-2-phenyl-3,4-dihydro-[1,3,4]oxadiazino[2,3-b]quinazolin-6(2H)-one], the IC50 in the series with MDA-MB-231 [1] was 84.15 ± 0.62 µM; in the series on MCF-7 [2], above 100 µM; with HCT-116 [3], 90.54 ± 0.73 µM; in the series with HepG-2 [4], above 100 µM; against EGFR it was 9.78 ± 0.31 µM.

Take `CC1Nn2c(nc3ccccc3c2=O)SC1c1ccccc1` (stereo not shown) [Compound 10, 3-methyl-2-phenyl-3,4-dihydro-[1,3,4]thiadiazino[2,3-b]quinazolin-6(2H)-one]: the half-inhibitory concentration (IC50) in the series with MDA-MB-231 [1] is 21.86 ± 0.04 µM; with MCF-7 [2] it was 37.31 ± 0.29 µM; in the series with HCT-116 [3], 46.3 ± 0.63 µM; in the series with HepG-2 [4] it was 35.6 ± 0.36 µM; against EGFR, 3.09 ± 0.2 µM.
